Measured values reported in ChEMBL document CHEMBL4507295 (2021).

How the values were obtained:
[1] = biological target: Inositol 1,4,5-trisphosphate-gated calcium channel ITPR1 (Homo sapiens) (UniProt Q14643); assay: Inositol Trisphosphate IP3 Eurofins-Panlabs radioligand binding assay; details: Rattus norvegicus; Compound concentration 10.0 uM
Homo sapiens [2] = species: Homo sapiens; assay: Calcitonin Gene-Related Peptide CGRP1 Eurofins-Panlabs radioligand binding assay; type: protein-complex assay; details: Compound concentration 10.0 uM
Rattus norvegicus [3] = species: Rattus norvegicus; details: Compound concentration 10.0 uM
[4] = biological target: D(1B) dopamine receptor (Homo sapiens) (UniProt P21918); assay: Dopamine D5 Eurofins-Panlabs radioligand binding assay; details: Compound concentration 10.0 uM
Chain of D(1B) dopamine receptor (Homo sapiens) (P21918 whole entry): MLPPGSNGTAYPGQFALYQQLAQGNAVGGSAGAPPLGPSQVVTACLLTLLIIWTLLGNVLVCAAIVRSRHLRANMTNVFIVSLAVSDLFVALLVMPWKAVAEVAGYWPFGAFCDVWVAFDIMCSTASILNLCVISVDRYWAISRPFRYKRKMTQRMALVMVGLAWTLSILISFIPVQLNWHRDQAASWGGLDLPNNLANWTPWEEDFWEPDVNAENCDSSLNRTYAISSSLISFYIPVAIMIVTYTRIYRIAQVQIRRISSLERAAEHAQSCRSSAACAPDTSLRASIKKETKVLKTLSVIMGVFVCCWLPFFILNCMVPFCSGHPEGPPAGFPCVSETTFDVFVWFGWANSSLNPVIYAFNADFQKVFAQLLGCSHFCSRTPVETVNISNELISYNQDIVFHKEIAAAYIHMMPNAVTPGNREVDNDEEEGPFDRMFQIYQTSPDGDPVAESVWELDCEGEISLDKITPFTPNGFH

[5] = biological target: Calcitonin receptor (Homo sapiens) (UniProt P30988); assay: Inhibition of Calcitonin at 10 µM in the Eurofins-Panlabs radioligand binding assay (Eurofins_assay_213610); details: Compound concentration 10.0 uM
Chain of Calcitonin receptor (Homo sapiens) (P30988 whole entry): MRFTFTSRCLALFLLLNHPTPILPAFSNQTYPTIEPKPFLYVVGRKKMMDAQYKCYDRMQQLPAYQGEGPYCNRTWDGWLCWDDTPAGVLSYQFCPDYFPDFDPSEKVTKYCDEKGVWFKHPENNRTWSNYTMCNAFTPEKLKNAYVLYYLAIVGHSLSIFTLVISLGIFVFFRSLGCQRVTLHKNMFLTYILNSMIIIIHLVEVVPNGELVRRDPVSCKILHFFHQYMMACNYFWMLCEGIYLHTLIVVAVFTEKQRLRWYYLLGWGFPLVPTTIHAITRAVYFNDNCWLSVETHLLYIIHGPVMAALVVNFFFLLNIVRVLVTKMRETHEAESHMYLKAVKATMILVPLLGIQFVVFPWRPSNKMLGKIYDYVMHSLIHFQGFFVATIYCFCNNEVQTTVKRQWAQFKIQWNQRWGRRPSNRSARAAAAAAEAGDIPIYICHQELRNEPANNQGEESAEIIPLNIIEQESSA

[6] = biological target: Adenosine receptor A3 (Homo sapiens) (UniProt P0DMS8); details: Compound concentration 10.0 uM
Chain of Adenosine receptor A3 (Homo sapiens) (P0DMS8 whole entry): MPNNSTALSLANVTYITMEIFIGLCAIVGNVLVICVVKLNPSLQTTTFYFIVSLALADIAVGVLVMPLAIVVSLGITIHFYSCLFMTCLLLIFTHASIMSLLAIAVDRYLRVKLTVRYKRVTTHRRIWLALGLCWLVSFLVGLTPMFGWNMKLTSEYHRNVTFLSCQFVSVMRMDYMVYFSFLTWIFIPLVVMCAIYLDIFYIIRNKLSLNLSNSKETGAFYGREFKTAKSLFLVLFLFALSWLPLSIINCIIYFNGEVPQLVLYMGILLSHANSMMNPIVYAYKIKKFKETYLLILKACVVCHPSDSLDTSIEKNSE

Homo sapiens [7] = species: Homo sapiens; assay: Estrogen ERbeta Eurofins-Panlabs radioligand binding assay; details: Compound concentration 10.0 uM
[8] = biological target: Prostaglandin F2-alpha receptor (Homo sapiens) (UniProt P43088); assay: Prostanoid FP Eurofins-Panlabs radioligand binding assay; parameters: ligand concentration 0.95 nM; details: Compound concentration 10.0 uM
[9] = biological target: Prostaglandin D2 receptor (Homo sapiens) (UniProt Q13258); assay: Prostanoid DP Eurofins-Panlabs radioligand binding assay; details: Compound concentration 10.0 uM
Chain of Prostaglandin D2 receptor (Homo sapiens) (Q13258 whole entry): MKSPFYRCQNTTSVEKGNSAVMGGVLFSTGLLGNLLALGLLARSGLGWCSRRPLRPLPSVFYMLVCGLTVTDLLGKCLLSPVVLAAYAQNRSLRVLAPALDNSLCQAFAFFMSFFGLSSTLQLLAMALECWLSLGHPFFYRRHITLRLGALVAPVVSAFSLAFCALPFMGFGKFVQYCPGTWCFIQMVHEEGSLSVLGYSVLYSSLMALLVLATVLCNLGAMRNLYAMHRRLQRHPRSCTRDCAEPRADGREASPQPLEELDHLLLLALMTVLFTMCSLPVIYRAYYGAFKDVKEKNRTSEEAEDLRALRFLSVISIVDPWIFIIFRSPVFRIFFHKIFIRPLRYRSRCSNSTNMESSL

[10] = biological target: T1, Alpha-2B adrenergic receptor (Homo sapiens) (UniProt P18089); details: Compound concentration 10.0 uM
T1 sequence (whole entry): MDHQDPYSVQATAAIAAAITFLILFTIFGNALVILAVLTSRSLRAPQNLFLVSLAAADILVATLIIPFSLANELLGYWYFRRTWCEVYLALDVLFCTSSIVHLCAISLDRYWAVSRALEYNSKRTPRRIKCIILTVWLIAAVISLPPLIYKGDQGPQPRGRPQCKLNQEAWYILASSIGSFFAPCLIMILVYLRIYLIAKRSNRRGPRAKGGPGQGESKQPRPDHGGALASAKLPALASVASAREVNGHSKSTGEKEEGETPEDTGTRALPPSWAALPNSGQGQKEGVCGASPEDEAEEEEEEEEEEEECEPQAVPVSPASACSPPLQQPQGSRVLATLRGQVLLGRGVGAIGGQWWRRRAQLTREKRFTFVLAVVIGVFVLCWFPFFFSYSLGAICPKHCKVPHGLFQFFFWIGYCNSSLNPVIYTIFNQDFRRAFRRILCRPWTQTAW

Rattus norvegicus [11] = species: Rattus norvegicus; assay: Testosterone Eurofins-Panlabs radioligand binding assay; parameters: ligand concentration 1.5 nM; details: Compound concentration 10.0 uM
[12] = biological target: Neuromedin-K receptor (Homo sapiens) (UniProt P29371); assay: Tachykinin NK3 Eurofins-Panlabs radioligand binding assay; parameters: ligand concentration 0.8 nM; details: Compound concentration 10.0 uM
Chain of Neuromedin-K receptor (Homo sapiens) (P29371 whole entry): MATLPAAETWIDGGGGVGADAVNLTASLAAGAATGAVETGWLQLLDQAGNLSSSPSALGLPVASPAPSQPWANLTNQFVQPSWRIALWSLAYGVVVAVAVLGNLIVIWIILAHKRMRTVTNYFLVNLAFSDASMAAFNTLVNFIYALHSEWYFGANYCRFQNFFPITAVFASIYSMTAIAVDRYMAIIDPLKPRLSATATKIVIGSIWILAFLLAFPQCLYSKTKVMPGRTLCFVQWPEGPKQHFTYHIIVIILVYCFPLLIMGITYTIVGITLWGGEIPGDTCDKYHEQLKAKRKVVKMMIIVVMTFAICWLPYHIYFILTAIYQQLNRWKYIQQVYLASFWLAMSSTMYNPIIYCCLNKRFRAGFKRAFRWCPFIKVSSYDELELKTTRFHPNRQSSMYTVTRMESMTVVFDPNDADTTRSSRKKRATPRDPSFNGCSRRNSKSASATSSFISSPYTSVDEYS

[13] = biological target: D(3) dopamine receptor (Homo sapiens) (UniProt P35462); details: Compound concentration 10.0 uM
Chain of D(3) dopamine receptor (Homo sapiens) (P35462 whole entry): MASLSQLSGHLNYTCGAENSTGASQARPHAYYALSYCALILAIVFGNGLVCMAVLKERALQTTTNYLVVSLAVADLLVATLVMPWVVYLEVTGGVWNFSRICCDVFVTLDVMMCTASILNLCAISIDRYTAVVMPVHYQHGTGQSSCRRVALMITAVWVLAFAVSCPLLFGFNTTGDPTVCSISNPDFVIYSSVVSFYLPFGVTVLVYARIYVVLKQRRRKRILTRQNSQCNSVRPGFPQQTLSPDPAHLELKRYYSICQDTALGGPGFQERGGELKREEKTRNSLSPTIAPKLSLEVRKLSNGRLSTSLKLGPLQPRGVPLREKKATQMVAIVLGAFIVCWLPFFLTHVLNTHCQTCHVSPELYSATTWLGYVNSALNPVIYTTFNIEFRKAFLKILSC

Rattus norvegicus [14] = species: Rattus norvegicus; assay: Adrenergic α2, Non-selective Eurofins-Panlabs radioligand binding assay; type: protein assay; details: Compound concentration 10.0 uM
[15] = biological target: T2, D(4) dopamine receptor (Homo sapiens) (UniProt P21917); assay: Dopamine D4.4 Eurofins-Panlabs radioligand binding assay; parameters: ligand concentration 1.2 nM; details: Compound concentration 10.0 uM
T2 sequence (whole entry): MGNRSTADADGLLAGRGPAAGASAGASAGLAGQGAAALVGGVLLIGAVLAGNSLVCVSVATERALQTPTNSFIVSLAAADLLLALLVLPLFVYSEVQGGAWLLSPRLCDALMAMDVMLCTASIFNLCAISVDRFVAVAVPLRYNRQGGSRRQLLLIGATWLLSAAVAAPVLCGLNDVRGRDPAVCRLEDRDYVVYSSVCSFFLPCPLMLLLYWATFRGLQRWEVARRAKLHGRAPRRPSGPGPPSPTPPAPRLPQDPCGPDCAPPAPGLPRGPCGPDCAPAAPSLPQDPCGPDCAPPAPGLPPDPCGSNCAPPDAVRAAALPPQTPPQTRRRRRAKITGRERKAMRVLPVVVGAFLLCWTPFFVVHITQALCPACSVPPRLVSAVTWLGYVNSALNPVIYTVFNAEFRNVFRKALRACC

Rattus norvegicus [16] = species: Rattus norvegicus; assay: Adrenergic α1, Non-selective Eurofins-Panlabs radioligand binding assay; type: protein assay; details: Compound concentration 10.0 uM
[17] = biological target: Muscarinic acetylcholine receptor M3 (Homo sapiens) (UniProt P20309); details: Compound concentration 10.0 uM
Chain of Muscarinic acetylcholine receptor M3 (Homo sapiens) (P20309 whole entry, looked up): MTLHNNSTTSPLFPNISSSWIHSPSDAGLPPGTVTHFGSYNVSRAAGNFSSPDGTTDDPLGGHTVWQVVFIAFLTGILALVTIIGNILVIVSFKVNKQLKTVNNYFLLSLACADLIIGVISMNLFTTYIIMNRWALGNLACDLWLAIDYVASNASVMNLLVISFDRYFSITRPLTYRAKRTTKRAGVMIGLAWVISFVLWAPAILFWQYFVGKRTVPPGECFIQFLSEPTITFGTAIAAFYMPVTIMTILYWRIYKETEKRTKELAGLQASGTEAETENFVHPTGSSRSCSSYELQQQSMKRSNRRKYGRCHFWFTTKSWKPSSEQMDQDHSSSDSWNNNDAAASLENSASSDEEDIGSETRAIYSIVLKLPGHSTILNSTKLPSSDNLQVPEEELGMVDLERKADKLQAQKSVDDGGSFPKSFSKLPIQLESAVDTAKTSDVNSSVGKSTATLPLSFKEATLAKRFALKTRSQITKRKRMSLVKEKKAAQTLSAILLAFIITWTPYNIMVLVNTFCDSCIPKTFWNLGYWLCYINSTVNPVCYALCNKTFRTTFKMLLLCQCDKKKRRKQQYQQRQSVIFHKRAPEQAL

[18] = biological target: Histamine H1 receptor (Homo sapiens) (UniProt P35367); details: Compound concentration 10.0 uM
Chain of Histamine H1 receptor (Homo sapiens) (P35367 whole entry): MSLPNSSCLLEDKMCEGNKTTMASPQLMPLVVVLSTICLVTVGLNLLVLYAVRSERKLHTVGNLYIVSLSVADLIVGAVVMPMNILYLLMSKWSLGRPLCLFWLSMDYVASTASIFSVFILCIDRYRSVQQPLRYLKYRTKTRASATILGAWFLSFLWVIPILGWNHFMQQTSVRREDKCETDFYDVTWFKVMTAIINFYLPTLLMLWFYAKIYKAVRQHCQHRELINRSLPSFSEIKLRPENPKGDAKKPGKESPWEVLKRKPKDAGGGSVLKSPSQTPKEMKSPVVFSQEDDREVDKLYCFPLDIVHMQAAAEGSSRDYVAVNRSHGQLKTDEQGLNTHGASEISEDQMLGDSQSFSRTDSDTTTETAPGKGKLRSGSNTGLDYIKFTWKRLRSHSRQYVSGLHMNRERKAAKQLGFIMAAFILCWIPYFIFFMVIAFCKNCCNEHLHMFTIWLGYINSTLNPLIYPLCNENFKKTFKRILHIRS

Caspase-6 (Homo sapiens) = Caspase-6 (Homo sapiens) (UniProt P55212); assay: Peptidase, CASP6 (Caspase 6) Eurofins-Panlabs enzyme assay; parameters: substrate with concentration; details: Compound concentration 10.0 uM
[19] = biological target: Peroxisome proliferator-activated receptor alpha (Homo sapiens) (UniProt Q07869); assay: PPARalpha Eurofins-Panlabs radioligand binding assay; details: Compound concentration 10.0 uM
Chain of Peroxisome proliferator-activated receptor alpha (Homo sapiens) (Q07869 whole entry): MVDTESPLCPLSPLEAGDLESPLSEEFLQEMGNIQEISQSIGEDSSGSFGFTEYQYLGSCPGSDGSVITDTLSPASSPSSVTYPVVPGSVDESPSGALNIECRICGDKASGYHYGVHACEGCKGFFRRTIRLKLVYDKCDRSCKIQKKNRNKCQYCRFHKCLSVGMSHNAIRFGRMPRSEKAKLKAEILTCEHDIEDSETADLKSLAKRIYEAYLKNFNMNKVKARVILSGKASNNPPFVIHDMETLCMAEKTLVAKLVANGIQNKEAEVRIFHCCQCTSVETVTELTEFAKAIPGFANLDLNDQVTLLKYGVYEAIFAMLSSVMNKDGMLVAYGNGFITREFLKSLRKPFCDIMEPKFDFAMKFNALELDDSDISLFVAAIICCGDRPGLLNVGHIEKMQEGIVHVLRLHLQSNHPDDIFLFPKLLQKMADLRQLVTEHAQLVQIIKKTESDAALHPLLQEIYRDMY

[20] = biological target: D(3) dopamine receptor (Homo sapiens) (UniProt P35462); details: Compound concentration 10.0 uM; remark: listed apart in the source
[21] = biological target: T3, 5-hydroxytryptamine receptor 1A (Homo sapiens) (UniProt P08908); details: Compound concentration 10.0 uM
T3 sequence (whole entry): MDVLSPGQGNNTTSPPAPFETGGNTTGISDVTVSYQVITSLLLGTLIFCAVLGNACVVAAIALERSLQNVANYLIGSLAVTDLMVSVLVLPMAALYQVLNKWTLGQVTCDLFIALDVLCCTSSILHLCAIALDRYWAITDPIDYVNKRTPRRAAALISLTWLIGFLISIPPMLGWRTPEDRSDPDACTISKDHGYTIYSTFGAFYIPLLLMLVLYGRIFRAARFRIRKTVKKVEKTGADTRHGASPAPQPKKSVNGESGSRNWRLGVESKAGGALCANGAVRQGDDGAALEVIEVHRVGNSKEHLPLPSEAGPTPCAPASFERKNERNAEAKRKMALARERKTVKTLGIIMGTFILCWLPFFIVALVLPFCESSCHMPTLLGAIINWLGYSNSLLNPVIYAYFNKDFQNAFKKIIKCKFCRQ

[22] = biological target: 5-hydroxytryptamine receptor 4 (Homo sapiens) (UniProt Q13639); assay: Inhibition of Serotonin (5-Hydroxytryptamine) 5-HT4 at 10 µM in the Eurofins-Panlabs radioligand binding assay (Eurofins_assay_272000); details: Cavia porcellus; Compound concentration 10.0 uM
[23] = biological target: Vasopressin V2 receptor (Homo sapiens) (UniProt P30518); assay: Vasopressin V2 Eurofins-Panlabs radioligand binding assay; parameters: ligand concentration 0.5 nM; details: Compound concentration 10.0 uM
[24] = biological target: ATP-sensitive inward rectifier potassium channel 11 (Cricetulus griseus) (UniProt A0A3L7HHE1); assay: Inhibition of Potassium Channel [KATP] at 10 µM in the Eurofins-Panlabs radioligand binding assay (Eurofins_assay_265600); details: Cricetinae; Compound concentration 10.0 uM
Chain of ATP-sensitive inward rectifier potassium channel 11 (Cricetulus griseus) (A0A3L7HHE1 as listed by the source): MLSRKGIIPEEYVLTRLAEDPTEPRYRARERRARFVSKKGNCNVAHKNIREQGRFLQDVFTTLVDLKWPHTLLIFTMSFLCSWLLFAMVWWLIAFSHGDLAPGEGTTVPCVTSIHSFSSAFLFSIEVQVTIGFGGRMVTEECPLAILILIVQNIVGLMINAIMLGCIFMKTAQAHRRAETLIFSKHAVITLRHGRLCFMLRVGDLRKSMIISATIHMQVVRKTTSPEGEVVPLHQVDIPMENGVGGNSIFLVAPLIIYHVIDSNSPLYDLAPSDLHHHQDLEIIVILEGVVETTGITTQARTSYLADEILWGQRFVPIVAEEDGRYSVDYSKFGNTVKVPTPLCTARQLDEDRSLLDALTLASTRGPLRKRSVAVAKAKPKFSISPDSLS

[25] = Inhibition of Atrial Natriuretic Factor (ANF) at 10 µM in the Eurofins-Panlabs radioligand binding assay (Eurofins_assay_211000); details: Cavia porcellus
[26] = biological target: Type-2 angiotensin II receptor (Homo sapiens) (UniProt P50052); assay: Angiotensin AT2 Eurofins-Panlabs radioligand binding assay; type: protein assay; details: Compound concentration 10.0 uM
Chain of Type-2 angiotensin II receptor (Homo sapiens) (P50052 whole entry): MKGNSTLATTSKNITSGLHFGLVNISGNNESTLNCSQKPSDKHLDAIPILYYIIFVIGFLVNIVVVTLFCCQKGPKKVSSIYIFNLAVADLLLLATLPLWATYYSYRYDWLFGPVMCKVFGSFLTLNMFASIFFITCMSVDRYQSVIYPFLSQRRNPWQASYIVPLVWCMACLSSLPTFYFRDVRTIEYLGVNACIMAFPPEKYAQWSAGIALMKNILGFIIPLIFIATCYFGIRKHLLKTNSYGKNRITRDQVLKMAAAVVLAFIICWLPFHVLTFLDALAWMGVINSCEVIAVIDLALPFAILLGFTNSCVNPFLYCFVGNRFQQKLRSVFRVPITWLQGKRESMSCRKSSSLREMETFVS

[27] = biological target: Melanocortin receptor 5 (Homo sapiens) (UniProt P33032); assay: Inhibition of Melanocortin MC5 at 10 µM in the Eurofins-Panlabs radioligand binding assay (Eurofins_assay_251400); parameters: ligand concentration 0.035 nM; details: Compound concentration 10.0 uM
[28] = biological target: Alpha-1D adrenergic receptor (Homo sapiens) (UniProt P25100); details: Compound concentration 10.0 uM

## N#CC1(c2ccccn2)CCN(Cc2cc(C(=O)O)c(=O)n3ccccc23)CC1 [MSD-M1PAM]
[1]
  inhibition: -3%
Homo sapiens [2]
  inhibition: -6%
Rattus norvegicus [3]
  inhibition: -4%
[4]
  inhibition: 2%
[5]
  inhibition: -5%
[6]
  inhibition: -3%
Homo sapiens [7]
  inhibition: 8%
[8]
  inhibition: 12%
[9]
  inhibition: 29%
[10]
  inhibition: -8%
Rattus norvegicus [11]
  inhibition: -3%
[12]
  inhibition: 7%
[13]
  inhibition: -9%
Rattus norvegicus [14]
  inhibition: -7%
[15]
  inhibition: 3%
Rattus norvegicus [16]
  inhibition: -4%
[17]
  inhibition: 3%
[18]
  inhibition: 5%
Caspase-6 (Homo sapiens)
  inhibition: 13%
[19]
  inhibition: 11%
[20]
  inhibition: -7.39%
[21]
  inhibition: 2%
[22]
  inhibition: 6%
[23]
  inhibition: -2%
[24]
  inhibition: 1%
[25]
  inhibition at 10 µM: 1% (not active)
[26]
  inhibition: -2%
[27]
  inhibition: 1%
[28]
  inhibition: -5.73%
